Where a name gives a salt, the structure may show the parent alone.
Test: Acute toxicity test
Conditions: mouse, in vivo
Method: With 4 to 5 ddy-strain male mice of 6 weeks old as one group, the compound of the present invention was orally administered as a suspension in 1% tragacanth solution, and observation was conducted for 7 days and the number of dead mice was examined to obtain the results shown in Table 3.

| Compound | LD50 at 168 h (po) [mg/kg] | LD50 at 168 h (oral, suspension in 1% tragacanth, male ddy mice, 6 weeks old, observed for 7 days) [mg/kg] |
| --- | --- | --- |
| O=C(O)CCC(=O)Nc1cccc(/C=C/c2ccc3ccccc3n2)c1 [compound 32, 2-[trans-3-(3-carboxypropanamide)styryl]quinoline.sodium salt] | > 1000 | – |
| O=C(O)C=CC(=O)Nc1cccc(C=Cc2ccc3ccccc3n2)c1 [compound 45] | – | > 1000 |
